≈ marks a conversion by molar mass, not a printed value.
Key:
Experiment in all cases: In vitro antibacterial evaluation: minimum inhibitory concentration (MIC), broth dilution method
Assay type in all cases: cell-based
[1] = tested on: Staphylococcus sp.; conditions: broth dilution, 18 hours at 35° C.
Method in brief: (§1)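 Values are minimum inhibitory concentrations, meaning the smallest antibiotic concentration that stops growth of the organism. They come from broth dilution in Muller-Hinton II […] per NCCLS guidance (M7-A2), using 5×10^5 CFU/mL and concentrations from 64 to 0.06 μg/mL.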

[2] = tested on: Enterococcus sp.
Method in brief: as §1

[3] = tested on: Escherichia coli
Method in brief: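 Inoculum: 5×10^5 CFU/mL. Range: 64-0.06 μg/mL. Medium: Muller-Hinton II […]; NCCLS M7-A2 broth dilution. Endpoint: lowest concentration inhibiting growth. Strains include methicillin-, penicillin- and/or vancomycin-resistant clinical isolates.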

[4] = tested on: Streptococcus sp.
Method in brief: as §1

[5] = broth dilution, inoculum 5×10^5 CFU/mL, 18 hours at 35° C.

MIC Coagulase Negative Staphylococcus (GC 4547) ([1]; 5×10^5 CFU/mL): 16 µg/mL (≈ 10.9 µM) | MIC Coagulase Negative Staphylococcus (GC 4548) ([1]; 5×10^5 CFU/mL): 8 µg/mL (≈ 5.45 µM) | MIC Coagulase Negative Staphylococcus (GC 4549) ([1]; 5×10^5 CFU/mL): 8 µg/mL (≈ 5.45 µM) | MIC Coagulase Negative Staphylococcus (GC 4551) ([1]; 5×10^5 CFU/mL): 16 µg/mL (≈ 10.9 µM) | MIC Coagulase Negative Staphylococcus (GC 6257) ([1]; 5×10^5 CFU/mL): 8 µg/mL (≈ 5.45 µM) | MIC Staphylococcus aureus (ATCC 29213) ([1]; 5×10^5 CFU/mL): 16 µg/mL (≈ 10.9 µM) | MIC Staphylococcus aureus (GC 1131) ([1]; 5×10^5 CFU/mL): 16 µg/mL (≈ 10.9 µM) | MIC Staphylococcus aureus (GC 3051) ([1]; 5×10^5 CFU/mL): 32 µg/mL (≈ 21.8 µM) | MIC Staphylococcus aureus (GC 3053) ([1]; 5×10^5 CFU/mL): 16 µg/mL (≈ 10.9 µM) | MIC Staphylococcus aureus (GC 4541) ([1]; 5×10^5 CFU/mL): 16 µg/mL (≈ 10.9 µM) | MIC Staphylococcus aureus (GC 4542) ([1]; 5×10^5 CFU/mL): 16 µg/mL (≈ 10.9 µM) | MIC Staphylococcus aureus (GC 4544) ([1]; 5×10^5 CFU/mL): 16 µg/mL (≈ 10.9 µM) | MIC Staphylococcus aureus (GC 4545) ([1]; 5×10^5 CFU/mL): 16 µg/mL (≈ 10.9 µM) | MIC Staphylococcus aureus-SMITH (GC 4543) ([1]; 5×10^5 CFU/mL): 16 µg/mL (≈ 10.9 µM) | MIC Staphylococcus aureus (ATCC 29213) ([1]; strain ATCC 29213): 16 µg/mL (≈ 10.9 µM) | MIC Staphylococcus aureus (GC 1131) ([1]; strain GC 1131): 16 µg/mL (≈ 10.9 µM) | MIC Staphylococcus aureus (GC 3051) ([1]; strain GC 3051): 32 µg/mL (≈ 21.8 µM) | MIC Staphylococcus aureus (GC 3053) ([1]; strain GC 3053): 16 µg/mL (≈ 10.9 µM) | MIC Staphylococcus aureus (GC 4541) ([1]; strain GC 4541): 16 µg/mL (≈ 10.9 µM) | MIC Staphylococcus aureus (GC 4542) ([1]; strain GC 4542): 16 µg/mL (≈ 10.9 µM) | MIC Staphylococcus aureus-SMITH (GC 4543) ([1]; strain GC 4543): 16 µg/mL (≈ 10.9 µM) | MIC Staphylococcus aureus (GC 4544) ([1]; strain GC 4544): 16 µg/mL (≈ 10.9 µM) | MIC Staphylococcus aureus (GC 4545) ([1]; strain GC 4545): 16 µg/mL (≈ 10.9 µM) | MIC Coagulase Negative Staphylococcus (GC 4547) ([1]; strain GC 4547): 16 µg/mL (≈ 10.9 µM) | MIC Coagulase Negative Staphylococcus (GC 4548) ([1]; strain GC 4548): 8 µg/mL (≈ 5.45 µM) | MIC Coagulase Negative Staphylococcus (GC 4549) ([1]; strain GC 4549): 8 µg/mL (≈ 5.45 µM) | MIC Coagulase Negative Staphylococcus (GC 4551) ([1]; strain GC 4551): 16 µg/mL (≈ 10.9 µM) | MIC Coagulase Negative Staphylococcus (GC 6257) ([1]; strain GC 6257): 8 µg/mL (≈ 5.45 µM) | MIC Enterococcus avium (GC 4558) [2, 5]: 16 µg/mL (≈ 10.9 µM) | MIC Enterococcus faecalis (ATCC 29212) [2, 5]: 16 µg/mL (≈ 10.9 µM) | MIC Enterococcus faecalis (GC 2242) [2, 5]: 16 µg/mL (≈ 10.9 µM) | MIC Enterococcus faecalis (GC 2691) [2, 5]: 16 µg/mL (≈ 10.9 µM) | MIC Enterococcus faecalis (GC 3059) [2, 5]: 16 µg/mL (≈ 10.9 µM) | MIC Enterococcus faecalis (GC 4552) [2, 5]: 16 µg/mL (≈ 10.9 µM) | MIC Enterococcus faecalis (GC 4553) [2, 5]: 16 µg/mL (≈ 10.9 µM) | MIC Enterococcus faecalis (GC 4554) [2, 5]: 32 µg/mL (≈ 21.8 µM) | MIC Enterococcus faecalis (GC 6189) [2, 5]: 16 µg/mL (≈ 10.9 µM) | MIC Enterococcus faecium (GC 2243) [2, 5]: 16 µg/mL (≈ 10.9 µM) | MIC Enterococcus faecium (GC 4556) [2, 5]: 16 µg/mL (≈ 10.9 µM) | MIC Enterococcus faecium (GC 4557) [2, 5]: 16 µg/mL (≈ 10.9 µM) | MIC Enterococcus faecalis (ATCC 29212) ([2]; strain ATCC 29212): 16 µg/mL (≈ 10.9 µM) | MIC Enterococcus faecalis (GC 2242) ([2]; strain GC 2242): 16 µg/mL (≈ 10.9 µM) | MIC Enterococcus faecium (GC 2243) ([2]; strain GC 2243): 16 µg/mL (≈ 10.9 µM) | MIC Enterococcus faecalis (GC 2691) ([2]; strain GC 2691): 16 µg/mL (≈ 10.9 µM) | MIC Enterococcus faecalis (GC 3059) ([2]; strain GC 3059): 16 µg/mL (≈ 10.9 µM) | MIC Enterococcus faecalis (GC 4552) ([2]; strain GC 4552): 16 µg/mL (≈ 10.9 µM) | MIC Enterococcus faecalis (GC 4553) ([2]; strain GC 4553): 16 µg/mL (≈ 10.9 µM) | MIC Enterococcus faecalis (GC 4554) ([2]; strain GC 4554): 32 µg/mL (≈ 21.8 µM) | MIC Enterococcus faecium (GC 4556) ([2]; strain GC 4556): 16 µg/mL (≈ 10.9 µM) | MIC Enterococcus faecium (GC 4557) ([2]; strain GC 4557): 16 µg/mL (≈ 10.9 µM) | MIC Enterococcus avium (GC 4558) ([2]; strain GC 4558): 16 µg/mL (≈ 10.9 µM) | MIC Enterococcus faecalis (GC 6189) ([2]; strain GC 6189): 16 µg/mL (≈ 10.9 µM) | MIC Escherichia coli (ATCC 25922) ([3]; strain ATCC 25922): >64 µg/mL | MIC Escherichia coli (GC 4559) ([3]; strain GC 4559): >64 µg/mL | MIC Escherichi coli (GC 4560) ([3]; strain GC 4560): 16 µg/mL (≈ 10.9 µM) | MIC Streptococcus agalactiae (GC 4564) [4, 5]: 1 µg/mL (≈ 0.681 µM) | MIC Streptococcus pneumoniae (ATCC 6301) [4, 5]: 0.12 µg/mL (≈ 0.0818 µM) | MIC Streptococcus pneumoniae (GC 1894) [4, 5]: <0.06 µg/mL | MIC Streptococcus pneumoniae (GC 4565) [4, 5]: 0.12 µg/mL (≈ 0.0818 µM) | MIC Streptococcus pyogenes (GC 4563) [4, 5]: 0.12 µg/mL (≈ 0.0818 µM) | MIC Streptococcus pneumoniae (ATCC 6301) ([4]; strain ATCC 6301): 0.12 µg/mL (≈ 0.0818 µM) | MIC Streptococcus pneumoniae (GC 1894) ([4]; strain GC 1894): <0.06 µg/mL | MIC Streptococcus pyogenes (GC 4563) ([4]; strain GC 4563): 0.12 µg/mL (≈ 0.0818 µM) | MIC Streptococcus agalactiae (GC 4564) ([4]; strain GC 4564): 1 µg/mL (≈ 0.681 µM) | MIC Streptococcus pneumoniae (GC 4565) ([4]; strain GC 4565): 0.12 µg/mL (≈ 0.0818 µM)
Structure (SMILES): CC(C)=CCOc1cccc(C2OCC3OC(OC4C(CO)OC(Oc5ccc(CC6NC(=O)C(C(C)c7ccccc7)NC(=O)CNC(=O)C(CO)NC(=O)C(C(O)C7CNC(=N)N7C7OC(CO)C(O)C(O)C7O)NC(=O)C(C(O)C7CNC(=N)N7)NC6=O)cc5)C(O)C4O)C(O)C(O)C3O2)c1 (stereo not shown) [Example 165]
MIC Staphylococcus haemolyticus (GC 4546) ([1]; 5×10^5 CFU/mL): 16 µg/mL (≈ 10.9 µM) | MIC Staphylococcus haemolyticus (GC 4546) ([1]; strain GC 4546): 16 µg/mL (≈ 10.9 µM)

— patent US8247211B2, “Glycopeptide antibiotics” (American Cyanamid Company, priority 2001, dated 2012)
